Laboratory results reported in patent US9328111B2, “Substituted cycloocta[5,6]pyrido[4,3,2-de]phthalazines as PARP inhibitors” (BeiGene Ltd., priority 2011, dated 2016).

Assays:
[1] = tested on: PARP PARylation in HeLa cells; experiment: PARylation assay in HeLa cells after H2O2; type: cell-based; conditions: Homo sapiens, 200 μM H2O2
Protocol: HeLa cells were seeded into a 96-well plate with clear bottom and black wall at an initial concentration of 5000 cells/well in culture medium (100 μL of DMEM containing 10% FBS, 0.1 mg/mL penicillin-streptomycin, and 2 mML-glutamine). The plates were incubated for 4 h at 37° C. under 5% CO2 atmosphere, and then compounds were added with serial dilutions over eight points over a 0.01 nM-10 μM final concentration range in 0.1% DMSO/culture medium. The plate was then incubated for 18 h at 37° C. in 5% CO2. Then DNA damage was provoked by addition of 60 μL of H2O2 solution in PBS (final concentration 200 μM). As a negative control, cells untreated with H2O2 were used. The plate was kept at 37° C. for 5 min. Then the medium was gently removed by plate inversion, and the cells were fixed by addition of ice-cold MeOH (100 μL/well) and kept at −20° C. for 20 min. After removal of the fixative by plate inversion and washing 10 times with PBS (120 μL), the detection buffer (50 μL/well, containing PBS, Tween (0.1%), and BSA (1 mg/mL)) together with the primary PAR mAb (Alexis ALX-804-220, 1:2000), the secondary anti-mouse Alexa Fluor 488 antibody (MolecularProbes A11029, 1:2000), and nuclear dye DAPI (Molecular Probes D3571, 150 nM) were added. Following overnight incubation at 4° C. in the dark, removal of the solution, and washing 6 times with PBS (120 μL), the plate was read on an ArrayScan VTI (ThermoFisher). Monitoring for PAR polymer was by detection of Alexa488 at XF100_485_20, exposure time of 0.05 s, and identification of the nuclei was by tracking DAPI with XF100_386_23, exposure time of 0.01 s. The mean value of total intensity of cells was calculated by measuring the average of total intensity of nuclei over the total number of DAPI-labeled nuclei. The EC50 was determined on the basis of the residual enzyme activity in the presence of increasing PARPi concentration.

Tankyrase-2 = Tankyrase-2 (Homo sapiens (Human), UniProt Q9H2K2); experiment: biochemical; conditions: read-out: Tankyrase-2 Inhibition @ 50 nM
Tankyrase-2, sequence (Q9H2K2 whole entry): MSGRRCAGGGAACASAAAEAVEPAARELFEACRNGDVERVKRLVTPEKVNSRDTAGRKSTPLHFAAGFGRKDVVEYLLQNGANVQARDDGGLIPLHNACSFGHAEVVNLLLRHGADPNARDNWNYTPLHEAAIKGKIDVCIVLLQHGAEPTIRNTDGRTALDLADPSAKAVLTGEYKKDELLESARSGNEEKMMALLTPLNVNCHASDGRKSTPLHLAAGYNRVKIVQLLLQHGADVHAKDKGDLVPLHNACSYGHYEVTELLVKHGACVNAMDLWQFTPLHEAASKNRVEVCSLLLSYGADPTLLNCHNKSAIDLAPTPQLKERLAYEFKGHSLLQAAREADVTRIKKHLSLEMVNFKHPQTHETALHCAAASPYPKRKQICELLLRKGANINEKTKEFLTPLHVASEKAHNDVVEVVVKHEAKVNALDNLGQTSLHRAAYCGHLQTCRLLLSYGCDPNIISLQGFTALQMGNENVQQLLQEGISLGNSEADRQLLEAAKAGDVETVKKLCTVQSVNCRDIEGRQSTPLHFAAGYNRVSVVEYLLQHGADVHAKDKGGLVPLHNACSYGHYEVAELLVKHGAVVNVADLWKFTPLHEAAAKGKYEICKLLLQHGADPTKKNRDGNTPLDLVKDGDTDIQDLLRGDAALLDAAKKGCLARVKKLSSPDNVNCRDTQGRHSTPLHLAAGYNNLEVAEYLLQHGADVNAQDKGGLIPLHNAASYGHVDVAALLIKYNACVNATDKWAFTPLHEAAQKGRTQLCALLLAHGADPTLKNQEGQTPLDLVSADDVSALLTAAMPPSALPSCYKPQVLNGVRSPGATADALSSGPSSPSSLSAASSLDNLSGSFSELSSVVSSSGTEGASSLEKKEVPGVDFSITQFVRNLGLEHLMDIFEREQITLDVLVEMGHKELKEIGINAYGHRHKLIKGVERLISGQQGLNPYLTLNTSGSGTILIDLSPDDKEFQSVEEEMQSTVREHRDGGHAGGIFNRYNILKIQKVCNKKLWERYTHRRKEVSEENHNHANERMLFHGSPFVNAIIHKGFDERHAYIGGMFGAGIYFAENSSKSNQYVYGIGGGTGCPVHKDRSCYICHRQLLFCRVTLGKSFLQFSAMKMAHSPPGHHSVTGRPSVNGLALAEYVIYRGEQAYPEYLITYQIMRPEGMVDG

SMILES | EC50 [1] [nM] | inhibition at 0.05 µM (Tankyrase-2) [%]
CC1(C)CCC2=C(C1)c1n[nH]c(=O)c3cccc(c13)N2 [Example 1, 10,10-Dimethyl-8,9,10,11-tetrahydro-2H-pyridazino[5,4,3-kl]acridin-3(7H)-one] | 0.8 | –
O=c1[nH]nc2c3c(cccc13)NC1=C2CCCC1 [Example 2, 8,9,10,11-Tetrahydro-2H-pyridazino[5,4,3-kl]acridin-3 (7H)-one] | 1.2 | –
O=c1[nH]nc2c3c(cccc13)NC1=C2CCCCCC1 [Example 3, 8,9,10,11,12,13-Hexahydro-2H-cycloocta[5,6]pyrido[4,3,2-de]phthalazin-3(7H)-one] | 0.6 | –
O=c1[nH]nc2c3c(cccc13)NC1=C2CCCCC1 [Example 4, 7,8,9,10,11,12-Hexahydrocyclohepta[5,6]pyrido[4,3,2-de]phthalazin-3(2H)-one] | 0.75 | –
Cc1ccc2c(=O)[nH]nc3c2c1NC1=C3CCCC1 [Example 5, 6-Methyl-8,9,10,11-tetrahydro-2H-pyridazino[5,4,3-kl]acridin-3(7H)-one] | 477 | –
O=c1[nH]nc2c3c(c(Br)ccc13)NC1=C2CCCCC1 [Example 6, 6-Bromo-7,8,9,10,11,12-hexahydrocyclohepta[5,6]pyrido[4,3,2-de]phthalazin-3(2H)-one] | 139 | –
O=c1[nH]nc2c3c(c(Br)ccc13)NC1=C2CCCC1 [Example 7, 6-Bromo-8,9,10,11-tetrahydro-2H-pyridazino[5,4,3-kl]acridin-3(7H)-one] | 32 | –
O=c1[nH]nc2c3c(c(Cl)ccc13)NC1=C2CCCCC1 [Example 8, 6-Chloro-7,8,9,10,11,12-hexahydrocyclohepta[5,6]pyrido[4,3,2-de]phthalazin-3(2H)-one] | 43.2 | 2.3
O=c1[nH]nc2c3c(c(Cl)ccc13)NC1=C2CCCC1 [Example 9, 6-Chloro-8,9,10,11-tetrahydro-2H-pyridazino[5,4,3-kl]acridin-3(7H)-one] | 43.2 | 14.1
O=c1[nH]nc2c3c(cccc13)NC1=C2CCC1 [Example 10, 7,8,9,10-Tetrahydrocyclopenta[5,6]pyrido[4,3,2-de]phthalazin-3(2H)-one] | 4.6 | –
O=c1[nH]nc2c3c(cccc13)NC1=C2c2ccccc2CC1 [Example 12, 8,9-Dihydro-2H-benzo[a]pyridazino[5,4,3-kl]acridin-3(7H)-one] | 6.8 | 14.3
CC(C)(C)OC(=O)N1CCC2=C(C1)Nc1cccc3c(=O)[nH]nc2c13 [Example 13, Tert-butyl 3-oxo-7,8,10,11-tetrahydro-2H-phthalazino[8,1-bc][1,7]naphthyridine-9(3H)-carboxylate] | 0.7 | –
O=c1[nH]nc2c3c(cccc13)NC1=C2CCNC1 [Example 14, 8,9,10,11-Tetrahydro-2H-phthalazino[8,1-bc][1,7]naphthyridin-3 (7H)-one] | 14 | –
CC(C)(NC(=O)OCc1ccccc1)C(=O)N1CCC2=C(C1)Nc1cccc3c(=O)[nH]nc2c13 [Example 15, Benzyl(2-methyl-1-oxo-1-(3-oxo-10,11-dihydro-2H-phthalazino[8,1-bc][1,7]naphthyridin-9(3H,7H,8H)-yl)propan-2-yl)carbamate] | 269 | –
CC1(C(=O)N2CCC3=C(C2)Nc2cccc4c(=O)[nH]nc3c24)CC1 [Example 16, 9-(1-Methylcyclopropanecarbonyl)-8,9,10,11-tetrahydro-2H-phthalazino[8,1-bc][1,7]naphthyridin-3(7H)-one] | 5.4 | –
CC1(C)C(C(=O)N2CCC3=C(C2)Nc2cccc4c(=O)[nH]nc3c24)C1(C)C [Example 17, 9-(2,2,3,3-Tetramethylcyclopropanecarbonyl)-8,9,10,11-tetrahydro-2H-phthalazino[8,1-bc][1,7]naphthyridin-3(7H)-one] | 0.9 | –
O=c1[nH]nc2c3c(cccc13)NC1=C2CCN(Cc2ccccc2)C1 [Example 18, 9-benzyl-8,9,10,11-tetrahydro-2H-phthalazino[8,1-bc][1,7]naphthyridin-3(7H)-one] | 9.7 | –
